Source: paper PMC7824259, “Novel Cecropin-4 Derived Peptides against Methicillin-Resistant Staphylococcus aureus” (Antibiotics, 2021)
≈ marks a conversion by molar mass, not a printed value. Read-outs that look alike come from different tables or passages of the source. No end group written: not given here.

Columns and labels:
S. aureus MW2 [1] = assay: Checkerboard synergy of C18 with clinical antibacterial agents; type: cell-based, Staphylococcus aureus; conditions: for Kind of interaction with C18: named agent combined with C18, S. aureus MW2, checkerboard; for FICI (fractional inhibition concentration index): named agent combined with C18, S. aureus MW2, 8 × 8 checkerboard, synergy FICI ≤ 0.5, additive 0.5 < FICI ≤ 4, antagonism > 4
Procedure: The checkerboard assay was used to evaluate the synergy of C18 with conventional antibacterial agents against S. aureus MW2 [40]. Briefly, an 8 × 8 matrix was formed in a 96-well microtiter petri dish with two-fold serial dilutions of C18 combined with each conventional antibacterial agent. The fractional inhibition concentration index (FICI) was calculated: FICI = MIC of compound A in combination / MIC of compound A alone +MIC of compound B in combination / MIC of compound B alone.

S. aureus MW2 [2] = assay: microbe, parasite or virus in culture; type: cell-based, Staphylococcus aureus; conditions: for MIC: Staphylococcus aureus, MW2, 18 h
Procedure: Broth microdilution assays determined the MICs of peptides following the method described by the Clinical and Laboratory Standards Institute. In short, for each peptide, serial dilutions (50 µL) in duplicates were made in Mueller-Hinton broth (BD, Franklin Lakes, NJ, USA) in a 96-well plate (Cat No. 3595, Corning, NY, USA). […] After bacterial addition, the plates were incubated at 37°C for 18 h. […] To investigate each peptide’s activity in high salt concentrations or human serum, the MIC was again tested as described in the previous paragraph of the experimental method. […] All MIC assays were conducted in duplicate, with each experiment replicated twice.

[3] = Rhodamine-BF dye leakage from liposomes; conditions: liposomes DOPC: Cholesterol, 55:40; 1 h incubation
Text: We also performed dye leakage experiments to further understand the membrane interactive nature of the peptides. A dye, rhodamine-BF, entrapped in liposomes (DOPC: Cholesterol, 55:40) was subjected to the action of the peptides.

S. aureus MW2 [4] = assay: Propidium iodide membrane permeability; type: cell-based, Staphylococcus aureus; conditions: 32 µg/mL, 1 h incubation
Procedure: Fluorescence-based bacterial permeation assay was used to follow the membrane-oriented interactions of the designed peptides. The propidium iodide probe is generally used to establish a pore formation mechanism of AMPs. In short, S. aureus MW2 was inoculated in MHB and grown overnight at 37 °C overnight with shaking at 220 rpm. A fresh inoculation was done the next day in the same media to achieve exponential growth. The culture was then washed with PBS 3 times and adjusted to OD600 ~0.3 in PBS. We added 48 μL of this culture to a 96-well black clear-bottom plate (Cat no. 3904, Corning, NY, USA) containing 50 μL of serially diluted 2 × peptide concentrations, and 2 μL of propidium iodide (20 μM) was added per well. Fluorescence was measured by SpectraMax M2 (Molecular Devices, CA, USA) with an excitation wavelength of 584 nm and an emission wavelength of 620 nm after 1 h at room temperature.

G. mellonella larvae = assay: Galleria mellonella toxicity; type: in vivo; conditions: uninfected larvae, doses 4, 8, 16, 32 mg/kg, even at 32 mg/kg, until 120 h, n = 16/group
Procedure: To study the protective effects of the peptide C18 in an in vivo model, we used an established wax moth model system. G. mellonella larvae (Vanderhorst Wholesale, St. Mary’s, OH, USA) were distributed as a different group with randomly selected larvae (n = 16/group). The S. aureus MW2 bacteria were grown to exponential phase from overnight culture. Cells were then washed with PBS three times and finally suspended in PBS with an OD600 = 0.3. Experimental groups consisted of untouched (no injection), PBS (vehicle), bacterial infection group, and treatment group. Vancomycin was used as a positive control. […] All injections were performed using a Hamilton syringe on the last left proleg. The larvae were incubated at 37 °C for 5 days, with live and dead counts being performed every 24 h.

human red blood cells = type: cell-based; conditions: for HL50 (50% of human red blood cells were lysed): 1 h
Procedure: The ability of the peptide to cause hemoglobin leakage was evaluated, as described in a previous study. Human erythrocytes were purchased from Rockland Immunochemicals (Limerick, PA, USA), washed 3 × times in equal volume PBS, and resuspended as 4% hRBCs solution. One hundred microliters of the blood cells were added to 100 µl of the peptide solution in PBS serially diluted from 4–128 µg/mL in a 96-well microtiter plate. PBS and 1% Triton-X 100 were used as […] controls. Upon adding the blood cells, the plate was incubated at 37 °C for 1 h and then centrifuged at 500× g for 5 min. One hundred microliters of the supernatant were transferred to a fresh 96-well plate, and absorbance was read at 540 nm. The hemolysis percentage was calculated considering 100% hemolysis caused by 1% Triton X-100 and 0% on PBS. The values were represented as the mean of duplicates. The following formula calculated the percentage of hemolysis: (A540 nm in the peptide solution − A540 nm in PBS)/(A540 nm of 1% Triton X-100 treated sample − A540 nm in PBS) × 100. Zero and 100% percentage hemolysis were determined in PBS and […], respectively.

HepG2 cells = assay: Mammalian cell cytotoxicity (WST-1); type: cell-based, human; conditions: 64 µg/mL, HepG2, 24 h
Procedure: HepG2 cells were used to assess the mammalian cell cytotoxicity of AMPs, as described previously. Cells were grown in Dulbecco’s Modified Eagle Medium (DMEM) (Gibco, MD, USA) supplemented with 10% fetal bovine serum (FBS) (Gibco, MD, USA) and 1% penicillin/streptomycin (Gibco, MD, USA) and maintained at 37°C in 5% CO2. Cells were harvested and resuspended in a fresh medium, and 100 µL were distributed in a 96-well plate at […]. AMPs were serially diluted in serum and antibiotic-free DMEM added to the monolayer of the cells, and the plates were incubated at 37 °C in 5% CO2 for 24 h. At 4 h, before the end of the incubation period, 10 µL of 2-(4-iodophenyl)-3-(4-nitrophenyl)-5-(2, 4-disulfophenyl)-2H-tetrazolium (WST-1) solution (Roche, Mannheim, Germany) was added to each well. WST-1 reduction was monitored at 450 nm using a Vmax microplate reader. Assays were performed in triplicate, and the percentage of cell survival was calculated.

psGABO-SPE plasmid DNA = assay: Plasmid band shift assay (DNA binding)
Procedure: The methods in the reference were used to detect the ability of C18 binding DNA [43]. Briefly, the reaction of 20 μL containing 100 ng psGABO-SPE plasmid DNA (Addgene, MA, USA), polymyxin B, and C18 (1.95–500 μM) or ddH2O (control) was incubated in TE (Tris-EDTA) buffer (Invitrogen, CA, USA) at 37 °C for 2 h. The products were detected in 1% agarose gel electrophoresis, and plasmid migration was observed on a G: BOX Chemi XT4 gel doc system.

CCCCCCCCCC(=O)N[C@@H](Cc1c[nH]c2ccccc12)C(=O)N[C@H](CC(N)=O)C(=O)N[C@@H](CC(=O)O)C(=O)N[C@@H]1C(=O)NCC(=O)N[C@@H](CCCN)C(=O)N[C@@H](CC(=O)O)C(=O)N[C@H](C)C(=O)N[C@@H](CC(=O)O)C(=O)NCC(=O)N[C@H](CO)C(=O)N[C@@H]([C@H](C)CC(=O)O)C(=O)N[C@@H](CC(=O)c2ccccc2N)C(=O)O[C@@H]1C [daptomycin]
Kind of interaction with C18 (S. aureus MW2 [1]): synergistic effect

CNC(C)C1CCC(N)C(OC2C(N)CC(N)C(OC3OCC(C)(O)C(NC)C3O)C2O)O1 (stereo not shown) [gentamicin]
FICI (fractional inhibition concentration index) (S. aureus MW2 [1]): 1.25 | Kind of interaction with C18 (S. aureus MW2 [1]): additive effect

Cc1onc(-c2ccccc2)c1C(=O)N[C@@H]1C(=O)N2[C@@H]1SC(C)(C)[C@@H]2C(=O)O [oxacillin]
FICI (fractional inhibition concentration index) (S. aureus MW2 [1]): 0.75 | Kind of interaction with C18 (S. aureus MW2 [1]): additive effect

CN[C@H](CC(C)C)C(=O)N[C@H]1C(=O)N[C@@H](CC(N)=O)C(=O)N[C@H]2C(=O)N[C@H]3C(=O)N[C@H](C(=O)N[C@H](C(=O)O)c4cc(O)cc(O)c4-c4cc3ccc4O)[C@H](O)c3ccc(c(Cl)c3)Oc3cc2cc(c3O[C@@H]2O[C@H](CO)[C@@H](O)[C@H](O)[C@H]2O[C@H]2C[C@](C)(N)[C@H](O)[C@H](C)O2)Oc2ccc(cc2Cl)[C@H]1O [vancomycin]
MIC against S. aureus MW2, Serum (5%) (S. aureus MW2 [2]; MHB with human serum (5%), 37 °C, 18 h, duplicate, replicated twice): not changed | MIC (S. aureus MW2 [2]; read-out: MIC against S. aureus MW2, CaCl2 (2 mM)): 2 µg/mL (≈ 1.38 µM) | MIC (S. aureus MW2 [2]; read-out: MIC against S. aureus MW2, MHB): 2 µg/mL (≈ 1.38 µM) | MIC (S. aureus MW2 [2]; read-out: MIC against S. aureus MW2, NaCl (150 mM)): 2 µg/mL (≈ 1.38 µM) | FICI (fractional inhibition concentration index) (S. aureus MW2 [1]): 0.625 | Kind of interaction with C18 (S. aureus MW2 [1]): additive effect | Rhodamine-BF fluorescence (dye leakage) [3]: lowest | Propidium iodide fluorescence (S. aureus MW2 [4]): unable to induce any fluorescence

LWKIGKKIWRVLWNWR [C18]
Larvae survival (toxicity) (G. mellonella larvae): more than 70% | HL50 relative to MIC against MRSA MW2 (human red blood cells): 4 times | HL50 (50% of human red blood cells were lysed) (human red blood cells): 16 µg/mL

LWKIWKKIWRVGWNWR [C13]
HL50 (50% of human red blood cells were lysed) (human red blood cells): 48 µg/mL

LWKIWKKIWRVWKNWR [C16]
HL50 (50% of human red blood cells were lysed) (human red blood cells): 16 µg/mL

LWKIWWKIWRVWKNWR [C22]
Reduction of live-cell contents (HepG2 cells): 20% | HL50 (50% of human red blood cells were lysed) (human red blood cells): 4 µg/mL

polymyxin B
Concentration of significant DNA binding (psGABO-SPE plasmid DNA; 100 ng plasmid, TE buffer, 37 °C, 2 h, 1% agarose gel, 1.95–500 μM tested): 31.2 µM | Concentration of significant DNA binding (psGABO-SPE plasmid DNA; same concentration in brackets): 37.1 µg/mL
